Source: PubChem BioAssay AID330 (DTP/NCI, 2004)
Values joined by “and” are separate entries in the source; they are usually repeats but may differ in a detail not shown here. Identical values can stand only once. Inconclusive results and toxic doses are left out.

Tested on: P388 leukemia ip, CD2F1 mice, survival T/C
Assay: NCI In Vivo Anticancer Drug Screen. Data for tumor model P388 Leukemia (intraperitoneal) in CD2F1 (CDF1) mice
Conditions: endpoint: median survival time, higher = longer survival
In short: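 Mice carrying the transplanted tumor received test compound or vehicle. Survival was recorded in each group, and the value is the treated-group measurement divided by that of the vehicle-treated control group.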

[1] = dose: 50.0 mg/kg/injection, schedule: Q01DX005 (ip), vehicle: Klucel (hydroxypropylcellulose) (HPC)
[2] = dose: 100.0 mg/kg/injection, schedule: Q01DX005 (ip), vehicle: Klucel (hydroxypropylcellulose) (HPC)
[3] = dose: 200.0 mg/kg/injection, schedule: Q01DX005 (ip), vehicle: Klucel (hydroxypropylcellulose) (HPC)
[4] = dose: 50.0 mg/kg/injection, schedule: Q04DX003 (ip), vehicle: saline with Tween-80
[5] = dose: 100.0 mg/kg/injection, schedule: Q04DX003 (ip), vehicle: saline with Tween-80

CC(C)CCCCCCCCCCCCC(=O)NCC(=O)NC1C(O)C(O)C(Nc2ncnc3nc[nH]c23)OC1C(O)CO (stereo not given)
T/C (dose: 0.06 mg/kg/injection, schedule: Q01DX009 (ip), vehicle: Klucel (hydroxypropylcellulose) (HPC)): 100 % of control | T/C (dose: 0.13 mg/kg/injection, schedule: Q01DX009 (ip), vehicle: Klucel (hydroxypropylcellulose) (HPC)): 100 % of control | T/C (dose: 0.25 mg/kg/injection, schedule: Q01DX009 (ip), vehicle: Klucel (hydroxypropylcellulose) (HPC)): 100 % of control | T/C (dose: 0.25 mg/kg/injection, schedule: Q01DX009 (ip), vehicle: distilled water + alcohol): 154 % of control | T/C (dose: 0.25 mg/kg/injection, schedule: Q01DX009 (ip), vehicle: saline with Tween-80): 158 % of control | T/C (dose: 0.25 mg/kg/injection, schedule: Q03HX008 (ip), vehicle: Klucel (hydroxypropylcellulose) (HPC)): 100 % of control | T/C (dose: 0.25 mg/kg/injection, schedule: Q03HX016 (ip), vehicle: Klucel (hydroxypropylcellulose) (HPC)): 100 % of control | T/C (dose: 0.25 mg/kg/injection, schedule: Q03HX024 (ip), vehicle: Klucel (hydroxypropylcellulose) (HPC)): 95 % of control | T/C (dose: 0.5 mg/kg/injection, schedule: Q01DX009 (ip), vehicle: Klucel (hydroxypropylcellulose) (HPC)): 100 % of control | T/C (dose: 0.5 mg/kg/injection, schedule: Q01DX009 (ip), vehicle: distilled water + Tween-80): 154 % of control | T/C (dose: 0.5 mg/kg/injection, schedule: Q01DX009 (ip), vehicle: saline with Tween-80): 151 % of control | T/C (dose: 0.5 mg/kg/injection, schedule: Q01DX009 (oral), vehicle: Klucel (hydroxypropylcellulose) (HPC)): 100 % of control | T/C (dose: 0.5 mg/kg/injection, schedule: Q03HX008 (ip), vehicle: Klucel (hydroxypropylcellulose) (HPC)): 100 % of control | T/C (dose: 0.5 mg/kg/injection, schedule: Q03HX016 (ip), vehicle: Klucel (hydroxypropylcellulose) (HPC)): 100 % of control | T/C (dose: 0.5 mg/kg/injection, schedule: Q03HX024 (ip), vehicle: Klucel (hydroxypropylcellulose) (HPC)): 90 % of control | T/C (dose: 1.0 mg/kg/injection, schedule: Q01DX009 (ip), vehicle: Klucel (hydroxypropylcellulose) (HPC)): 100 % of control | T/C (dose: 1.0 mg/kg/injection, schedule: Q01DX009 (ip), vehicle: distilled water + alcohol): 110 % of control | T/C (dose: 1.0 mg/kg/injection, schedule: Q01DX009 (ip), vehicle: saline with Tween-80): 101 % of control and 109 % of control | T/C (dose: 1.0 mg/kg/injection, schedule: Q01DX009 (oral), vehicle: Klucel (hydroxypropylcellulose) (HPC)): 100 % of control | T/C (dose: 1.0 mg/kg/injection, schedule: Q03HX008 (ip), vehicle: Klucel (hydroxypropylcellulose) (HPC)): 100 % of control | T/C (dose: 1.0 mg/kg/injection, schedule: Q03HX016 (ip), vehicle: Klucel (hydroxypropylcellulose) (HPC)): 100 % of control | T/C (dose: 1.0 mg/kg/injection, schedule: Q03HX024 (ip), vehicle: Klucel (hydroxypropylcellulose) (HPC)): 95 % of control | T/C (dose: 2.0 mg/kg/injection, schedule: Q01DX001 (ip), vehicle: Klucel (hydroxypropylcellulose) (HPC)): 100 % of control | T/C (dose: 2.0 mg/kg/injection, schedule: Q01DX009 (ip), vehicle: Klucel (hydroxypropylcellulose) (HPC)): 151 % of control | T/C (dose: 2.0 mg/kg/injection, schedule: Q01DX009 (ip), vehicle: saline with Tween-80): 89 % of control | T/C (dose: 2.0 mg/kg/injection, schedule: Q01DX009 (oral), vehicle: Klucel (hydroxypropylcellulose) (HPC)): 100 % of control | T/C (dose: 2.0 mg/kg/injection, schedule: Q03HX008 (ip), vehicle: Klucel (hydroxypropylcellulose) (HPC)): 100 % of control | T/C (dose: 2.0 mg/kg/injection, schedule: Q03HX016 (ip), vehicle: Klucel (hydroxypropylcellulose) (HPC)): 100 % of control | T/C (dose: 2.0 mg/kg/injection, schedule: Q03HX024 (ip), vehicle: Klucel (hydroxypropylcellulose) (HPC)): 95 % of control | T/C (dose: 2.0 mg/kg/injection, schedule: Q04DX003 (ip), vehicle: Klucel (hydroxypropylcellulose) (HPC)): 100 % of control | T/C (dose: 2.0 mg/kg/injection, schedule: Q08DX002 (ip), vehicle: Klucel (hydroxypropylcellulose) (HPC)): 100 % of control | T/C (dose: 4.0 mg/kg/injection, schedule: Q01DX001 (ip), vehicle: Klucel (hydroxypropylcellulose) (HPC)): 100 % of control | T/C (dose: 4.0 mg/kg/injection, schedule: Q01DX009 (oral), vehicle: Klucel (hydroxypropylcellulose) (HPC)): 100 % of control | T/C (dose: 4.0 mg/kg/injection, schedule: Q04DX003 (ip), vehicle: Klucel (hydroxypropylcellulose) (HPC)): 100 % of control | T/C (dose: 4.0 mg/kg/injection, schedule: Q08DX002 (ip), vehicle: Klucel (hydroxypropylcellulose) (HPC)): 100 % of control | T/C (dose: 8.0 mg/kg/injection, schedule: Q01DX001 (ip), vehicle: Klucel (hydroxypropylcellulose) (HPC)): 100 % of control | T/C (dose: 8.0 mg/kg/injection, schedule: Q04DX003 (ip), vehicle: Klucel (hydroxypropylcellulose) (HPC)): 100 % of control | T/C (dose: 8.0 mg/kg/injection, schedule: Q08DX002 (ip), vehicle: Klucel (hydroxypropylcellulose) (HPC)): 100 % of control | T/C (dose: 16.0 mg/kg/injection, schedule: Q01DX001 (ip), vehicle: Klucel (hydroxypropylcellulose) (HPC)): 100 % of control | T/C (dose: 16.0 mg/kg/injection, schedule: Q01DX001 (oral), vehicle: Klucel (hydroxypropylcellulose) (HPC)): 100 % of control | T/C (dose: 16.0 mg/kg/injection, schedule: Q04DX003 (ip), vehicle: Klucel (hydroxypropylcellulose) (HPC)): 100 % of control | T/C (dose: 16.0 mg/kg/injection, schedule: Q08DX002 (ip), vehicle: Klucel (hydroxypropylcellulose) (HPC)): 104 % of control | T/C (dose: 32.0 mg/kg/injection, schedule: Q01DX001 (oral), vehicle: Klucel (hydroxypropylcellulose) (HPC)): 100 % of control | T/C (dose: 64.0 mg/kg/injection, schedule: Q01DX001 (oral), vehicle: Klucel (hydroxypropylcellulose) (HPC)): 100 % of control | T/C (dose: 128.0 mg/kg/injection, schedule: Q01DX001 (oral), vehicle: Klucel (hydroxypropylcellulose) (HPC)): 100 % of control

O=c1ccn2ccccc2n1
T/C (dose: 50.0 mg/kg/injection, schedule: Q01DX009 (ip), vehicle: saline): 95 % of control | T/C (dose: 50.0 mg/kg/injection, schedule: Q04DX003 (ip), vehicle: saline): 91 % of control | T/C (dose: 100.0 mg/kg/injection, schedule: Q01DX009 (ip), vehicle: saline): 86 % of control | T/C (dose: 100.0 mg/kg/injection, schedule: Q04DX003 (ip), vehicle: saline): 100 % of control | T/C (dose: 200.0 mg/kg/injection, schedule: Q01DX009 (ip), vehicle: saline): 95 % of control | T/C (dose: 200.0 mg/kg/injection, schedule: Q04DX003 (ip), vehicle: saline): 91 % of control

CCCCCCCC(=O)Nc1ncc([N+](=O)[O-])s1
T/C (dose: 50.0 mg/kg/injection, schedule: Q01DX009 (ip), vehicle: Klucel (hydroxypropylcellulose) (HPC)): 106 % of control | T/C (dose: 100.0 mg/kg/injection, schedule: Q01DX009 (ip), vehicle: Klucel (hydroxypropylcellulose) (HPC)): 106 % of control | T/C (dose: 200.0 mg/kg/injection, schedule: Q01DX009 (ip), vehicle: Klucel (hydroxypropylcellulose) (HPC)): 113 % of control

Cc1cc(=O)[nH]c(SCC(=O)c2ccccc2)n1
T/C [1]: 102 % of control | T/C [2]: 99 % of control | T/C [3]: 102 % of control

CCOC(=O)C(O)(CC)CCC(C)C (stereo not given)
T/C [4]: 100 % of control | T/C [5]: 100 % of control | T/C (dose: 200.0 mg/kg/injection, schedule: Q04DX003 (ip), vehicle: saline with Tween-80): 100 % of control

OCC1OC(n2nnc3cc[nH]c(=S)c32)C(O)C1O (stereo not given)
T/C (dose: 1.56 mg/kg/injection, schedule: Q01DX009 (ip), vehicle: water): 106 % of control | T/C (dose: 3.13 mg/kg/injection, schedule: Q01DX009 (ip), vehicle: water): 99 % of control | T/C (dose: 6.25 mg/kg/injection, schedule: Q01DX009 (ip), vehicle: water): 98 % of control | T/C (dose: 12.5 mg/kg/injection, schedule: Q01DX009 (ip), vehicle: water): 107 % of control | T/C (dose: 25.0 mg/kg/injection, schedule: Q01DX009 (ip), vehicle: water): 97 % of control

CCOC(=O)c1c(C)cc2c(CO)n[nH]c(=O)c2c1C
T/C (dose: 50.0 mg/kg/injection, schedule: Q01DX009 (ip), vehicle: saline with Tween-80): 102 % of control | T/C (dose: 100.0 mg/kg/injection, schedule: Q01DX009 (ip), vehicle: saline with Tween-80): 100 % of control | T/C (dose: 200.0 mg/kg/injection, schedule: Q01DX009 (ip), vehicle: saline with Tween-80): 99 % of control

C[N+](C)(C)C1CCC2CCCCC2C1 (stereo not given)
T/C (dose: 12.5 mg/kg/injection, schedule: Q04DX003 (ip), vehicle: saline with Tween-80): 103 % of control | T/C (dose: 25.0 mg/kg/injection, schedule: Q04DX003 (ip), vehicle: saline with Tween-80): 100 % of control and 107 % of control and 98 % of control | T/C [4]: 100 % of control and 104 % of control and 124 % of control | T/C [5]: 98 % of control

COc1ccc(S(=O)(=O)c2cc(C)c3ccc4ccccc4c3n2)cc1
T/C [1]: 101 % of control | T/C [2]: 102 % of control | T/C [3]: 98 % of control
